Measured values published in PMC8983325 (Protein & Cell, 2022).

System: SARS-CoV-2 variants of concern (Alpha, Beta, Delta and Omicron)
Assay: microbe, parasite or virus in culture
Type: cell-based
Details: Severe acute respiratory syndrome coronavirus 2, VeroE6/TMPRSS2, read-out: EC50 against SARS-CoV-2 VOC

O=C(Nc1ccccc1Cl)c1sc(=S)n2c1[nH]c(=O)c1ccccc12 [F0213] gave an EC50 of 2.2 to 4.8 µM.
